Results on eleven molecules are retold here after ChEMBL document CHEMBL4888484, “Replenishing the malaria drug discovery pipeline: Screening and hit evaluation of the MMV Hit Generation Library 1 (HGL1) against asexual blood stage Plasmodium falciparum ,using a nano luciferase reporter read-out” (2022).

Molecules are shown by their SMILES. Some results are limits rather than exact numbers.

Usually IC50 stands for the concentration needed to halve the response being measured. A lower IC50 goes with greater potency.

In data set [1] the test system is Plasmodium falciparum. Put plainly: Hit confirmation in dose-response curve in NF54 nanoGlo assay, at 12h. The data set is classed as functional, organism-based, Erythrocyte. On the set-up: timepoint 12 hour. To be noted: Plasmodium falciparum, NF54, Erythrocyte, 12 h.
Data set [2] concerns Plasmodium falciparum. Put plainly: Hit confirmation in dose-response curve in NF54 pLDH assay, at 72h. The data set is classed as functional, organism-based. On the set-up: timepoint 72 hour. Particulars: NF54, Erythrocyte.
In data set [3] the test system is Plasmodium falciparum. Kind of data set: Hit confirmation in dose-response curve in NF54 nanoGlo assay, at 72h. On the set-up: timepoint 72 hour. The class given is functional, organism-based, Erythrocyte. Particulars: Plasmodium falciparum, NF54, Erythrocyte, 72 h.
The nature of data set [4]: Re-testing in dose-response curve in HepG2 cytotoxicity assay, at 72h. The data set is classed as toxicity, cell-based. Also on record: timepoint 72 hour. To be noted: human, HepG2 cells.
The test system of data set [5] is Plasmodium falciparum. Put plainly: Hit confirmation in dose-response curve in Dd2 pLDH assay, at 72h. The data set is classed as functional, organism-based. Also on record: timepoint 72 hour. To be noted: Dd2, Erythrocyte.
Data set [6] concerns Plasmodium falciparum. Put plainly: Re-testing in dose-response curve in 3D7 pLDH assay, at 72h. The data set is classed as functional, organism-based. Also on record: timepoint 72 hour. Particulars: 3D7, Erythrocyte.
The nature of data set [7]: Hit confirmation in dose-response curve in HepG2 cytotoxicity assay, at 72h. Particulars: human, HepG2 cells. On the set-up: timepoint 72 hour. The class given is toxicity, cell-based.

On to `CN(CCNC(=O)CCc1cn(-c2ccccc2)nc1-c1ccc2c(c1)OCO2)C1CCCCC1`, for which the IC50 with Plasmodium falciparum [1] was more than 10000 nM; in the data set with Plasmodium falciparum [2] it was 3310 nM; in the data set on Plasmodium falciparum [3], 1480 nM; in the data set with Plasmodium falciparum [5], 1480 nM; with Plasmodium falciparum [6] it was 545 nM. Besides, the values for the IC50 at 72 h in data set [4] and in data set [7] were approximately 9240 nM and more than 10000 nM, respectively.

As to `COc1ccc(-c2cc(C(=O)N[C@H]3CCN(c4ccc(=O)n(C)n4)C3)c(C)n2C)cc1`, the IC50 with Plasmodium falciparum [1] is more than 10000 nM; in the data set on Plasmodium falciparum [2], 3630 nM; in the data set on Plasmodium falciparum [3], 1050 nM; in the data set with Plasmodium falciparum [5] it was 794 nM; with Plasmodium falciparum [6] it was 347 nM. The values for the IC50 at 72 h in data set [4] and in data set [7] were more than 25000 nM and more than 10000 nM, respectively.

`Cc1ccc(NC(=O)c2c(C)nc3sc(C(=O)NCc4ccccc4)c(N)c3c2-c2ccccc2Cl)c(C)c1`: the IC50 came to 1510 nM in the data set with Plasmodium falciparum [1]; 1410 nM with Plasmodium falciparum [2]; 831 nM in the data set with Plasmodium falciparum [3]; 1780 nM in the data set on Plasmodium falciparum [5]; 1080 nM with Plasmodium falciparum [6]. Moreover, the IC50 at 72 h in data set [4] was more than 25000 nM; in data set [7], more than 10000 nM.

`CC(C)CC[C@@H](CCNCCN(C)C)c1ccc(Cl)cc1`: the IC50 is 891 nM in the data set on Plasmodium falciparum [1]; 1020 nM in the data set on Plasmodium falciparum [2]; 562 nM in the data set on Plasmodium falciparum [3]; 977 nM in the data set on Plasmodium falciparum [5]; 3230 nM with Plasmodium falciparum [6]. Besides, the IC50 at 72 h is 14900 nM in data set [4] and more than 10000 nM in data set [7].

With `COc1cccc(-c2cc(O)cc(CC[C@H]3CCCCN3)c2)n1`, the IC50 stood at 1730 nM in the data set on Plasmodium falciparum [1]; 1820 nM in the data set on Plasmodium falciparum [2]; 1230 nM with Plasmodium falciparum [3]; 1550 nM in the data set on Plasmodium falciparum [5]; 1280 nM with Plasmodium falciparum [6]. For the same molecule, the IC50 at 72 h is more than 25000 nM in data set [4] and more than 10000 nM in data set [7].

With `Cc1cnccc1NCCNC1CCN(c2ccc3c(c2)CCC3)CC1`, the IC50 in the data set on Plasmodium falciparum [1] was determined as 7080 nM; with Plasmodium falciparum [2], 1020 nM; with Plasmodium falciparum [3], 4570 nM; in the data set with Plasmodium falciparum [5] it was 646 nM; with Plasmodium falciparum [6], 321 nM. The values for the IC50 at 72 h in data set [4] and in data set [7] were 5420 nM and 8130 nM, respectively.

Turning to `CCCCN(CC)CCNC(=O)C1CCN(C2=NS(=O)(=O)C(c3ccc(OC)cc3)=C2C)CC1`, the IC50 in the data set with Plasmodium falciparum [1] was more than 10000 nM; in the data set with Plasmodium falciparum [2], 1200 nM; in the data set on Plasmodium falciparum [3], 3020 nM; in the data set with Plasmodium falciparum [5], 1320 nM; with Plasmodium falciparum [6] it was 702 nM. The values for the IC50 at 72 h in data set [4] and in data set [7] were more than 25000 nM and more than 10000 nM, respectively.

On to `Cc1noc(C)c1CN1C[C@@H]2Oc3cc(F)ccc3C(=O)N(C)[C@@H]2C1`, for which the IC50 in the data set with Plasmodium falciparum [1] came to 1580 nM; in the data set on Plasmodium falciparum [2], 1020 nM; in the data set with Plasmodium falciparum [3] it was 724 nM; with Plasmodium falciparum [5] it was 1000 nM; in the data set with Plasmodium falciparum [6] it was 488 nM. Also, the IC50 at 72 h was more than 25000 nM in data set [4] and more than 10000 nM in data set [7].

For `O=S(=O)(Nc1ccc(O)c2cccnc12)N1CCCC1`, the IC50 in the data set on Plasmodium falciparum [1] is 10000 nM; with Plasmodium falciparum [2], 1320 nM; in the data set on Plasmodium falciparum [3], 2690 nM; in the data set on Plasmodium falciparum [5] it was 1450 nM; with Plasmodium falciparum [6], 10500 nM. The IC50 at 72 h is 12500 nM in data set [4] and more than 10000 nM in data set [7].

Take `CCC1=C(c2ccc(C)cc2)S(=O)(=O)N=C1N1CCC(C(=O)NCCN2CCCC[C@@H]2C)CC1`: the IC50 with Plasmodium falciparum [1] was more than 10000 nM; with Plasmodium falciparum [2], 1350 nM; in the data set with Plasmodium falciparum [3], 2690 nM; in the data set with Plasmodium falciparum [5] it was 1410 nM; with Plasmodium falciparum [6] it was 522 nM. Besides, the figures for the IC50 at 72 h in data set [4] and in data set [7] were more than 25000 nM and more than 10000 nM, respectively.

With `Cc1nc(N)nc(C)c1C(=O)Nc1ccc(Nc2ncccn2)cc1`, the IC50 is more than 10000 nM in the data set with Plasmodium falciparum [1]; 1780 nM with Plasmodium falciparum [2]; 1480 nM in the data set with Plasmodium falciparum [3]; 1700 nM in the data set with Plasmodium falciparum [5]; 1460 nM in the data set with Plasmodium falciparum [6]. For the same molecule, the IC50 at 72 h in data set [4] was more than 25000 nM; in data set [7], more than 10000 nM.
